Values after ≈ are worked out from the molar mass of the structure shown. Values joined by “and” are separate entries in the source; they are usually repeats but may differ in a detail not shown here. Identical values can stand only once. Like-named read-outs stand apart in the source and are kept apart here. Blank lines part the entries; values can stand above or below the compound they belong to.
How the values were obtained:
HEK293 cells = assay: in vitro; format: cell-based; details: human, 1.25 µM
Protocol: (§1) On Day 3, fluorescence was read with Nano-BRET substrates. Remove plates from incubator to allow to reach to RT (30 min). Also equilibrate CTG reagent to Rm Temp. Dilute Nano-BRET substrate 1:100 in Assay media. Add 25 uL of diluted substrate to each well and shake for 30 seconds. Read on ClarioSTAR or GloMAX right away (within 10 min). Donor emission @ 460 nm. Acceptor emission @ 618 nm. Use the same plate to measure cell viability (Cell Titer-Glo-2.0 (CTG) Viability test). After reading BRET signal, add CTG reagent to each well at 1:2 ratio and shake on orbital shaker for 2 min. Incubate at Rm Temp for 10-30 min. Read luminescence on ClarioSTAR or GloMAX. Analysis was performed using Prism. Non-linear regression. Log (inhibitor) vs response—variable slope (four parameters). For CTG data linear values (not logarithmic).

in vitro = format: cell-based; details: human, HEK293 cells, CTG (CellTiter Glo) Relative to Media
Protocol: as §1

Solubility in PBS = format: physicochemical
Method in brief: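 HPLC quantitation of peptide remaining in the PBS supernatant after ultracentrifugation, referenced to a 50 μM solution in DMSO.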

[1] = biological target: T1, beta-catenin/TCF4 engagement (Homo sapiens, UniProt P35222); assay: Nano-BRET target engagement assay (B-cat-Halo & TCF4-Luc in HEK293 cells); format: cell-based; details: for BRET % Inhibition: replicates
T1 construct: expressed in transfected cells; host or cells: HEK293
T1 sequence (P35222 1-781): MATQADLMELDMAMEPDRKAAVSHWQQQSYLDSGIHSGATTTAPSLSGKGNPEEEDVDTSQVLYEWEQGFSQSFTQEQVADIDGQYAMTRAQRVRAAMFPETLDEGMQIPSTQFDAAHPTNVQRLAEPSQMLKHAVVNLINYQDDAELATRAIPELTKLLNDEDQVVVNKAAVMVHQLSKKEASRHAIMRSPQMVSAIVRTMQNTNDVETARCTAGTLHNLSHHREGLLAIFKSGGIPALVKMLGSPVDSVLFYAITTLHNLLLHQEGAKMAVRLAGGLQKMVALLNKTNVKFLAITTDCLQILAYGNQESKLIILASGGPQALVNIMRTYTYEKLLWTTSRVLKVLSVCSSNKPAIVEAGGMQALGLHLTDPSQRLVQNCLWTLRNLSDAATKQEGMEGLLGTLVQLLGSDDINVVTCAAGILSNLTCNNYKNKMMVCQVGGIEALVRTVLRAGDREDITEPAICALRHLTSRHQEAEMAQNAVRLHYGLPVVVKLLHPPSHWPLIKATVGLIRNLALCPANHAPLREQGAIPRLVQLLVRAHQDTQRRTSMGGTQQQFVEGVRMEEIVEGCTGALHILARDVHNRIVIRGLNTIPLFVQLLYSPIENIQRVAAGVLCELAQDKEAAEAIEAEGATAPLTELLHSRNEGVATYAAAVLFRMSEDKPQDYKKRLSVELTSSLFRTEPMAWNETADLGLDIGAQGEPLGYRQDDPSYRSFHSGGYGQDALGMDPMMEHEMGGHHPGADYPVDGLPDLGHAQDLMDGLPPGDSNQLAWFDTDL

CHI Log D procedure = format: physicochemical; details: pH 7.4, CHI Log D
[2] = system: TCF/LEF luciferase Reporter in DLD1 cells; assay: TCF reporter assay (DLD1 TCF/LEF luciferase reporter, Bright-Glo); format: cell-based; details: read-out: DLD1 4% Abs IC50; DLD1 4%
Method in brief: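 DLD1 cells stably carrying a TCF/LEF luciferase reporter were plated at 5000 cells/well in RPMI + 4% FBS and treated overnight with a 1:2 compound dilution series. Bright-Glo luminescence read on day 3; viability by CellTiter-Glo. Absolute IC50 determined.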

COLO320DM cells = format: cell-based; details: read-out: COLO320DM Proliferation Abs IC50
Method in brief: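 COLO320DM cells at 250 cells/well in RPMI-1640 + 4% HI FBS, dosed after 18–22 h with a 7-point […] 1/2 dilution series from 20 uM down to 313 nM.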

[3] = biological target: T2, full-length beta-Catenin (Uniprot ID P35222) (Homo sapiens, UniProt P35222); assay: Fluorescence polarization IC50 (beta-catenin / 5FAM-TCF4 10-53 competition); format: binding
T2 construct: 10 nM full-length beta-Catenin (Uniprot ID P35222)
T2 sequence (P35222 1-781): T1 sequence (P35222 1-781)

[4] = plate row B = 20 uM, integration 0.3 s, reading 1

CTG (CellTiter Glo) Relative to Media (HEK293 cells): 101
solubility at 15 min (Solubility in PBS; Solubility (uM)): 45 µM (≈ 86.3 µg/mL)
BRET % Inhibition ([1]; 0.625 uM): −56.5% and −6.9% and 8.3%
BRET % Inhibition ([1]; 1.25 uM): −24.8% and −1.1% and −4.0%
BRET % Inhibition ([1]; 2.5 uM): −21.3% and 26.5% and −11.7%
BRET % Inhibition ([1]; 5 uM): −16.9% and −28.4% and −18.6%
BRET % Inhibition ([1]; 10 uM): −21.7% and −21.9% and 1.7%
BRET % Inhibition ([1]; 20 uM): −36.7% and −0.3% and −19.5%
inhibition at 10 µM ([1]; HEK293, @ 10 uM, read-out: NanoBRET % inh @ 10 uM): 4.3%
BRET Acceptor 600 LP raw reading [1, 4]: 860 and 660 and 640
BRET Donor 450 BP raw reading [1, 4]: 58480 and 55870 and 47990
BRET Acceptor 600 LP raw reading ([1]; plate row D = 5 uM): 510 and 420 and 630
BRET Donor 450 BP raw reading ([1]; plate row D = 5 uM): 38850 and 29900 and 47500
BRET Donor 450 BP raw reading ([1]; plate row E = 2.5 uM): 34130 and 22720 and 40100
BRET Acceptor 600 LP raw reading ([1]; plate row G = 0.625 uM): 410 and 440 and 530
BRET Donor 450 BP raw reading ([1]; plate row G = 0.625 uM): 25180 and 35670 and 47630
IC50 ([1]; read-out: NanoBRET IC50): > 20 µM
chromatographic logD (CHI Log D procedure): 2.32
SMILES: CC(=O)N1CCC[C@]12CC=CCCCC1(CCCC=CCCCOC(=O)N3CC[C@@](C(=O)N[C@@H](Cc4ccsc4)C(=O)N[C@@H](Cc4csc5ccccc45)C(=O)N[C@@H](CCC(N)=O)C(N)=O)(C3)NC(=O)[C@H](CC(N)=O)NC(=O)[C@H](CC(=O)O)NC(=O)[C@H](C)NC(=O)[C@H](C)NC(=O)[C@H](CC(=O)O)NC(=O)[C@H](CC(=O)O)NC1=O)NC(=O)[C@H](CC(C)(C)C)NC(=O)[C@H](Cc1ccccc1)NC2=O (stereo partly drawn) [I-797, Ac-PL3-Phe-Npg-B5-Asp-Asp-Ala-Ala-Asp-Asn-PyrS2-3Thi-BztA-Gln-NH2]
viability at 0.625 µM (in vitro): 104%
viability at 1.25 µM (in vitro): 104%
viability at 2.5 µM (in vitro): 103%
viability at 5 µM (in vitro): 102%
viability at 10 µM (in vitro): 100%
viability at 20 µM (in vitro): 92%

SMILES: CC(=O)N1CCC[C@]12CC=CCCCC1(CCCC=CCCCOC(=O)N3CC[C@@](C(=O)N[C@@H](Cc4ccsc4)C(=O)N[C@@H](Cc4csc5ccccc45)C(=O)N[C@@H](CCC(N)=O)C(N)=O)(C3)NC(=O)[C@H](CC(C)C)NC(=O)[C@H](Cc3ccccc3)NC(=O)[C@H](C)NC(=O)[C@H](C)NC(=O)[C@H](CC(=O)O)NC(=O)[C@H](CC(=O)O)NC1=O)NC(=O)[C@H](CC(C)(C)C)NC(=O)[C@H](CC(=O)O)NC2=O (stereo partly drawn) [I-801, Ac-PL3-Asp-Npg-B5-Asp-Asp-Ala-Ala-Phe-Leu-PyrS2-3Thi-BztA-Gln-NH2]
IC50 [2]: 4.3 µM
IC50 (COLO320DM cells): > 20 µM
Solubility (Solubility in PBS): 50 µM (≈ 95.9 µg/mL)
IC50 ([1]; read-out: NanoBRET Abs IC50): 5.8 µM
IC50 ([1]; read-out: NanoBRET IC50): 6.8 µM
chromatographic logD (CHI Log D procedure): 2.21
IC50 ([3]; fluorescence polarization, beta-catenin, read-out: FP EC50): 0.006 µM
IC50 ([3]; read-out: beta-Catenin FP IC50): 0.007 µM

Source: patent US20240116985A1, “STAPLED PEPTIDES AND METHODS THEREOF” (priority 2020, published 2024)
